Assay results: publication PMC5947742 (The Journal of Dermatology, 2018)

What was measured:
[1] = Plasma pharmacokinetics of dabrafenib, its metabolites and trametinib; assay type: in vivo, Japanese patients; details: for time by which plasma (trough) concentrations seemed to reach steady state: repeat dosing of 150 mg dabrafenib b.i.d. and 2 mg trametinib q.d.; for plasma AUC at repeat dosing (day 21) compared with single dose (day 1): AUC0-12 h for dabrafenib, AUC0-24 h for trametinib
Safety and tolerability = assay type: in vivo, Japanese patients

Q: For `CC(C)(C(=O)O)c1nc(-c2cccc(NS(=O)(=O)c3c(F)cccc3F)c2F)c(-c2ccnc(N)n2)s1` [GSK2298683], which “time by which plasma (trough) concentrations seemed to reach steady state” value (“time by which plasma” below) [1] is on record?
A: Its value is no more than 3 week.

Q: With `CC(C)c1nc(-c2cccc(NS(=O)(=O)c3c(F)cccc3F)c2F)c(-c2ccnc(N)n2)s1` [GSK2167542] as the compound, how does the “time by which plasma” value [1] read?
A: Its value is no more than 3 week.

Q: With `CC(C)(CO)c1nc(-c2cccc(NS(=O)(=O)c3c(F)cccc3F)c2F)c(-c2ccnc(N)n2)s1` [GSK2285403] as the compound, how does the “time by which plasma” value [1] read?
A: The value was no more than 3 week.

Q: For `CC(=O)Nc1cccc(-n2c(=O)n(C3CC3)c(=O)c3c(Nc4ccc(I)cc4F)n(C)c(=O)c(C)c32)c1` [Trametinib, trametinib], which “adverse event leading to discontinuation” value (Safety and tolerability; patient 11, phase 2) is on record?
A: The value was “grade 3 uveitis”.

Q: And the “plasma AUC at repeat dosing (day 21) compared with single dose (day 1)” value [1]?
A: Its value is “higher”.

Q: What about the “time by which plasma” value [1] of the same compound?
A: Its value is no more than 3 week.

Q: And the “half-life relative to the dose interval (24 h)” value ([1]; trametinib 2 mg q.d.)?
A: Its value is “approximately 3.5 times the dose interval”.

Q: With `CC(C)(C)c1nc(-c2cccc(NS(=O)(=O)c3c(F)cccc3F)c2F)c(-c2ccnc(N)n2)s1` [Dabrafenib, dabrafenib] as the compound, how does the “adverse event leading to discontinuation” value (Safety and tolerability; patient 1, phase 1) read?
A: The value was “grade 3 increased blood alkaline phosphatase”.

Q: And the “adverse event leading to discontinuation” value (Safety and tolerability; patient 11, phase 2)?
A: Its value is “grade 3 uveitis”.

Q: What about the “plasma AUC at repeat dosing (day 21) compared with single dose (day 1)” value [1] of the same compound?
A: The value was “lower”.

Q: And the “time by which plasma” value [1]?
A: The value was no more than 3 week.
